Assay results from PMC12461628, “Tolerogenic antigen-specific vaccine induces VISTA-enriched regulatory T cells and protects against arthritis in DRB1∗04:01 mice” (Molecular Therapy, 2025).

Test: IL-17A ELISpot, lymph node cells after DTH
Assay type: cell-based, mouse
Conditions: ConA 1 μg/mL, 48 h, 37°C
Protocol: For T cell recall assays, 1 × 10^6 lymph node cells per/well were plated in anti-IL17A (TC11-18H10.1, 5 μL, Mabtech)-coated plates (Merck Millipore, #MSIPS4W10), stimulated with denatured bCOL2 (30 μg/mL), and incubated for 48 h at 37°C. Positive controls consisted of lymph node cells stimulated with Concanavalin A (ConA; 1 μg/mL, Sigma), while negative controls comprised unstimulated cells in complete medium only. Bound IL-17A was detected with anti-IL17A (TC11-8H4, 1 μg/mL, Mabtech) followed by streptavidin-conjugated alkaline phosphatase. The spots were developed using the substrate BCIP/Nitroblue Tetrazolium (Sigma). Scanned wells (ImmunoScan) were analyzed with ImmunoSpot software (Cellular Technology).

With Concanavalin A [ConA] the “IL-17A ELISpot signal, positive control” value was “exceeds 600 SFC/10^6 cells”.
